{
  "source": "patent US20230280333A1",
  "about": "“FOREIGN SUBSTANCE INTRODUCTION CONSTRUCT AND USE THEREOF” (TOAGOSEI CO., LTD., priority 2022, published 2023)",
  "key": {"HeLa cells": {"test_system": "HeLa cells", "assay": "Evaluation of the cell membrane permeability by flow cytometry", "assay_type": "cell-based, human", "details": "for MFI: mean fluorescent intensity of HeLa cells, 10 μM in culture medium, 0.5% DMSO, 20 hours at 37° C., FL2 detector; for MFI compared between examples, in words / cell membrane permeability, conclusion in words: HeLa cells, 10 μM, 20 hours; for cell membrane permeability, conclusion in words: FAM-labelled constructs", "experimental": "The cell membrane permeability of peptides 1 to 4 was analyzed using HeLa cells (an established cell line derived from human cervical cancer cells) as the eukaryotic cells.\nHeLa cells were cultured on DMEM (Dulbecco's modified Eagle's medium (Cat. No. 043-30085, from FUJIFILM Wako Pure Chemical Corporation)) containing 10% FBS (fetal bovine serum), which is a general culture medium.\nThe HeLa cells attached to the culture plate were washed with PBS, a 0.25% trypsin/EDTA solution was then added, and incubation was carried out for 3 minutes at 37° C. After this incubation, the aforementioned DMEM containing 10% FBS was added and the trypsin was inactivated, and the cells were then sedimented by carrying out centrifugal separation for 5 minutes at 150×g. The supernatant produced by the centrifugal separation was removed, and the aforementioned DMEM containing 10% FBS was added to the sediment (cell pellet) to prepare a cell suspension containing approximately 2×10^5 cells/mL. The cells were seeded (approximately 2×10^5 cells/well) by the addition of 1 mL of this cell suspension to the wells of a commercial 6-well plate (Iwaki). In addition, the 2 mM sample solution 1 was diluted with the aforementioned DMEM containing 10% FBS to prepare a sample solution 1 in which the sample 1 concentration was 20 μM. 1 mL of this 20 sample solution 1 was added to a well (i.e., the concentration of sample 1 in the culture medium in the wells was brought to 10 μM and the DMSO concentration was brought to 0.5%). The cells were subsequently incubated for 20 hours at 37° C. under the condition of 5% CO2.\nAfter this 20-hour incubation, the culture supernatant was removed from a well and the cells in the well were washed twice with 1 mL PBS. 200 μL of a 0.25% trypsin/EDTA solution was then added to the well and incubation was carried out for 3 minutes at 37° C. After this incubation, the trypsin was inactivated by the addition of 400 μL of the aforementioned DMEM containing 10% FBS to the well, and the cells were subsequently recovered by transferring the cell suspension in a well to a tube. The well was then washed by the further addition of 600 μL PBS to the well. The cells that had remained in the well were recovered to the tube by transferring the PBS in the well to the tube. Centrifugal separation was run on this tube for 5 minutes using conditions of 4° C. and 210×g. After the centrifugal separation, the supernatant was removed, the sediment (cell pellet) was suspended (washed) with 1 mL of PBS, and centrifugal separation was carried out using the same conditions as before. After this procedure had been performed twice, the supernatant was removed to obtain cells (cell pellet) that had been cultured on a sample 1-containing culture medium.\nThe cell permeability of sample 1 was analyzed using the resulting cells (cell pellet) and a flow cytometer. An On-Chip Flow Cytometer (On-chip Biotechnologies Co., Ltd.) was used for the flow cytometer.\nFor this analysis, the cell pellet obtained as described above was suspended in 50 μL PBS. To this suspension was added 50 μL of Sample Buffer 2× for use with the indicated flow cytometer to prepare a cell suspension for submission to analysis.\nGating was performed using this flow cytometer based on forward scatter (FSC) and side scatter (SSC); the gating was set for the cell population that was the target of the analysis; and the fluorescent intensity was measured for the cell population within this gating. The analysis was performed so the cell count for this cell population reached at least 10,000 or more. The FL2 fluorescence detector (optimal detection wavelength around 543 nm) on the indicated flow cytometer, which could detect the fluorescence wavelength of FAM, was used to measure the fluorescent intensity. […]"}, "nucleolus": {"test_system": "nucleolus", "assay": "Nucleolar transferability stated in the description, no method shown", "assay_type": "cell-based"}, "[1]": {"test_system": "cell membrane of eukaryotic cells", "assay": "Cell membrane permeability stated by the inventors, no data or method shown", "assay_type": "cell-based", "details": "detailed data not provided"}},
  "note": "Where no end group is shown, it is not given here.",
  "data": [
    {"substance": "5(6)-carboxyfluorescein [Example 5, reference compound]", "values": [
      {"measurement": "MFI", "setting": "HeLa cells", "value": 10.3}
    ]},
    {"substance": "Ac-KKRTLRKKKRKKR-FAM [Example 4]", "values": [
      {"measurement": "MFI", "setting": "HeLa cells", "value": 24.3}
    ]},
    {"substance": "Ac-KKRTLRKKKRKKRWPC-FAM (Ac-KKRTLRKKKRKKRWPC-{FAM}) [Example 2, foreign substance introduction construct provided with peptide 2, FAM bonded to the C-terminal side]", "values": [
      {"measurement": "MFI compared between examples, in words", "setting": "HeLa cells", "value": "significantly higher MFI than Example 4"},
      {"measurement": "MFI", "setting": "HeLa cells", "value": 121}
    ]},
    {"substance": "Ac-KKRTLRKSNRKKR-FAM [Example 3]", "values": [
      {"measurement": "MFI", "setting": "HeLa cells", "value": 12.4}
    ]},
    {"substance": "Ac-KKRTLRKSNRKKRWPC-FAM (Ac-KKRTLRKSNRKKRWPC-{FAM}) [Example 1, foreign substance introduction construct provided with peptide 1, FAM bonded to the C-terminal side]", "values": [
      {"measurement": "MFI compared between examples, in words", "setting": "HeLa cells", "value": "highest among Example 1, Example 3, and Example 3′"},
      {"measurement": "MFI", "setting": "HeLa cells", "value": 87.5}
    ]},
    {"substance": "FAM-KKRTLRKSNRKKR-CONH2 [Example 3′]", "values": [
      {"measurement": "MFI", "setting": "HeLa cells", "value": 62}
    ]},
    {"substance": "KKRTLRKKKRKKR (Ac-KKRTLRKKKRKKR) [Peptide 4, variant of LIM kinase 2 NoLS; synthesized with N-terminal acetylation]", "values": [
      {"measurement": "nucleolar transferability, in words", "setting": "nucleolus", "value": "excellent nucleolar transferability"},
      {"measurement": "cell membrane permeability, statement in words", "setting": "[1]", "value": "higher cell membrane permeability than peptide comprising the amino acid sequence given by SEQ ID NO: 3"}
    ]},
    {"substance": "KKRTLRKKKRKKRWPC (Ac-KKRTLRKKKRKKRWPC) [Peptide 2, carrier peptide fragment; synthesized with N-terminal α-amino group acetylated]", "values": [
      {"measurement": "cell membrane permeability, conclusion in words", "setting": "HeLa cells; listed as SEQ ID NO: 2", "value": "better cell membrane permeability than peptide composed of the amino acid sequence given by SEQ ID NO: 5"}
    ]},
    {"substance": "KKRTLRKSNRKKR (Ac-KKRTLRKSNRKKR) [Peptide 3, variant of LIM kinase 2 NoLS; synthesized with N-terminal acetylation]", "values": [
      {"measurement": "cell membrane permeability, statement in words", "setting": "[1]", "value": "higher cell membrane permeability than peptide comprising the amino acid sequence given by SEQ ID NO: 3"}
    ]},
    {"substance": "KKRTLRKSNRKKRWPC (Ac-KKRTLRKSNRKKRWPC) [Peptide 1, carrier peptide fragment; synthesized with N-terminal α-amino group acetylated]", "values": [
      {"measurement": "cell membrane permeability, conclusion in words", "setting": "HeLa cells; listed as SEQ ID NO: 1", "value": "better cell membrane permeability than peptide composed of the amino acid sequence given by SEQ ID NO: 4"}
    ]}
  ]
}
